Laboratory results: patent publication US10710987B2, “Hydrochloride salt form for EZH2 inhibition” (Epizyme, Inc., priority 2013, dated 2020)

Assay: Dynamic vapor sorption (DVS), hygroscopicity
Type: physicochemical
Settings: for hygroscopicity (DVS, in words): FIGS. 5 and 6
Description: Dynamic Vapor Sorption DVS was measured on a VTI Model SGA-100 system. Measurement method: The relative humidity (RH) was changed in a controlled fashion, in 5% steps from 5.0% to 95.0% then back to 5.0% using the gravimetric vapor sorption system, and the weight percentage change (wt %) of the sample at each stage was measured.

| hygroscopicity (DVS, in words) | weight increase (DVS) (upon increasing relative humidity from 5.0% to 95.0%, FIG. 5) | weight gain (DVS) (at 75% relative humidity (RH) at 25° C., FIG. 6) | SMILES |
| --- | --- | --- | --- |
| non-hygroscopic | less than 1.5% |  | CCN(c1cc(-c2ccc(CN3CCOCC3)cc2)cc(C(=O)NCc2c(C)cc(C)[nH]c2=O)c1C)C1CCOCC1.Cl [Polymorph C, 4-((3′-(((4,6-Dimethyl-2-oxo-1,2-dihydropyridin-3-yl)methyl)carbamoyl)-5′-(ethyl(tetrahydro-2H-pyran-4-yl)amino)-4′-methyl-[1,1-biphenyl]-4-yl)methyl)morpholin-4-ium chloride] |
| some hygroscopicity |  | 4-6% | CCN(c1cc(-c2ccc(CN3CCOCC3)cc2)cc(C(=O)NCc2c(C)cc(C)[nH]c2=O)c1C)C1CCOCC1 [Polymorph A, 4-((3′-(((4,6-Dimethyl-2-oxo-1,2-dihydropyridin-3-yl)methyl)carbamoyl)-5′-(ethyl(tetrahydro-2H-pyran-4-yl)amino)-4′-methyl-[1,1′-biphenyl]-4-yl)methyl)morpholin-4-ium chloride] |
